For one experiment, the system named is HepG2 cells. Briefly: Apoptosis by PI exclusion and forward/side scatter (FSC/SSC). It counts as cell-based. Particulars: 100 μg/ml 5-FU, after 48 hours. The procedure:
FIG. 1: Chemotherapeutic agents effect CD95-mediated death in HepG2 cells HepG2 cells were cultured almost up to confluence and then incubated with 100 μg/ml 5-FU over the indicated periods in the presence of either an isotype-adapted control antibody or the anti-CD95L antibody NOK-1 (50 μg/ml). The same experiment was carried out with the addition of CD95-Fc (50 μg/ml). Apoptosis was determined by PI exclusion and measurement of the forward/side scatter (FSC/SSC). The data shown are average values with standard deviations from three samples.
Following the corresponding treatment, the cells were trypsinated with 1% trypsin-EDTA for 5 min., washed twice with PBS and stained using 2.5 μg/ml propidium iodide (PI; Sigma). The stain uptake was measured by means of a “FACScan” cytometer (Becton Dickinson GmbH, Heidelberg, Germany) using the “CellQuest” Software. Changes in the forward/side scatter (FSC/SSC) of the cell population were evaluated as well. For quantifying the DNA fragmentation the supernatants were centrifuged at 200×g, the cells were trypsinated and washed as indicated above. […] The nuclei were then analyzed as regards their DNA content by means of flow cytometry (Nicoletti et al., Journal of Immunological Methods 139 (1991), 271). […]

The test system of experiment [1] is CD95L-mRNA. Format: cell-based, human. Particulars: for upward regulation of CD95L-mRNA: HepG2 (wt p53) cells; for effect on transcription or translation of the housekeeping gene β-actin: subtoxic concentrations.
Experiment [2] relates to CD95L-mRNA. The experiment in a line: CD95L-mRNA expression by RT-PCR in Hep3B cells. Format: cell-based, human. Particulars: Hep3B (p53 -/-) cells.
The next experiment concerns SKW6.4 cells. Briefly: 51Cr release assay, Hep3B effector cells and SKW6.4 target cells. Format: cell-based, human. Particulars: Hep3B treated with 100 μg/ml 5-FU 48 hours before incubation. The procedure: FIG. 3: The treatment with chemotherapeutic agents results in an upward regulation of functional CD95L A ^51Cr release assay with Hep3B cells as effectors and SKW6.4 cells as target was used. Hep3B cells were cultured in 96-well plates treated with 5-FU. After 48 hours, the chemotherapeutic agents were removed from the culture medium and ^51Cr-labeled SKW6.4 cells were added with either a control antibody or the anti-CD95L antibody NOK-1. Following incubation overnight, the supernatants were measured in a gamma counter. Relative lysis was calculated as indicated in Example 1. E/T is the ratio between effector cells and target cells. Every series of concentration was carried out threefold. The diagram represents an experiment from a series of independent experiments having the same result.
CD95L-mediated cytotoxicity induced by chemotherapy was studied. Hep3B cells (effector cells) were seeded into 96-well plates and treated with chemotherapeutic agents for 48 hours. […] After 12 to 16 hours, 100 μl supernatant of each well were collected and measured in a gamma counter. The specific lysis was calculated in accordance with formula L=(E−S)/(T−S), E representing the gamma counts of the unknown sample, S being the spontaneous lysis of the labeled target cells in the medium without effector cells, and T representing the maximum release of the target cells kept in 2 N HCl. […]

Another experiment has as its system CD95L promoter. Briefly: CD95L promoter luciferase reporter assay in transiently transfected Hep3B cells. The conditions noted are these: for effect of the combination on activation of the CD95L promoter: 5-FU plus etoposide, 48 hours. It counts as cell-based, human. (In general: Reporter assays use an easily measured gene product as a stand-in for the process of interest.)

Experiment [3] deals with c-Jun. Briefly: c-Jun immunofluorescence in Hep3B cells. It counts as cell-based, human. Particulars: 5-FU 100 μg/ml for 40 hours. The procedure: (§1) Thereafter, the cells were either not treated (A) or treated with 5-FU (100 μg/ml) for 40 hours (B), fixed and stained as described. C+D: Human primary hepatocytes were isolated as described in Example 1 and seeded onto culture dishes. Thereafter, the cells were either not treated (C) or treated with 5-FU (50 μg/ml) for 40 hours (D), fixed and stained with an antibody specific to c-Jun.
Cultured Hep3B cells or freshly isolated human primary hepatocytes were plated onto Lab-Tek™ chamber slides (Renner GmbH, Darmstadt, Germany). Following culturing over a period of at least two days, the cells were treated with chemotherapeutic agents. Thereafter, fixation in methanol/acetone (5 min. or 10 sec. at −20° C.) was carried out. Then, the cells were initially incubated at 37° C. for 1 hour with the specific primary antibody against human c-Jun (Santa Cruz GmbH, Heidelberg, Germany), and after three wash steps using PBS, the cells were covered with fluorescein-isothiocyanate-conjugated goat anti-rabbit IgG (Dianova, Hamburg, Germany) for 1 hour. Non-specific staining was monitored by incubation with mouse or rabbit immunoglobulins in place of the specific primary antibody or by blocking the primary antibody with the immunogenic peptide. The slides were covered with cover glasses and evaluated by means of a fluorescence microscope. […]

Experiment [4] has as its system c-Jun. Briefly: c-Jun immunofluorescence in primary human hepatocytes. The conditions noted are these: 5-FU 50 μg/ml for 40 hours. Format: cell-based. The procedure: as §1
Primary human hepatocytes were obtained by means of a 2-step perfusion technique from healthy liver tissue of patients undergoing partial liver resection. For this purpose, a cannula was introduced into a blood vessel of the removed liver tissue and it was perfused with Ca-free and Mg-free “Hank's balanced salt solution (HBSS; Gibco BRL) containing 0.5 mM EDTA and 50 mM HEPES for 15 to 20 min. […] The viability was determined by means of the trypan blue exclusion method. […]
Cultured Hep3B cells or freshly isolated human primary hepatocytes were plated onto Lab-Tek™ chamber slides (Renner GmbH, Darmstadt, Germany). […] Non-specific staining was monitored by incubation with mouse or rabbit immunoglobulins in place of the specific primary antibody or by blocking the primary antibody with the immunogenic peptide. The slides were covered with cover glasses and evaluated by means of a fluorescence microscope. […]

Like-named read-outs stand apart in the source and are kept apart here. Starred links: 1 amine or outer side, 2 acyl side, 3 side chain; linkers in the order of their positions; H or OH if unused. Positions of bridges follow the written chain, without caps; N, C: chain ends. Non-standard residues stand in square brackets, D forms with d. Residues, ends and D or L forms follow the SMILES beside them. Chains are numbered I, II in the order given. Actinocin(9to1) = Cc1c2oc3c(C)ccc(C(=O)[*:1])c3nc-2c(C(=O)[*:2])c(N)c1=O; NMeV = CN[C@H](C(=O)O)C(C)C; Sar = CNCC(=O)O

Method for CD95L promoter: Every bar represents the calculated value from treated/untreated cells. The transfection efficiency in A and B was monitored by cotransfection of a renilla Luciferase construct controlled by a basal promoter. […] B: Titration of 5-FU. Hep3B cells were transiently transfected with the −36/+100 promoter construct. […] The cells were lyzed and the luciferase activity was determined.
The cotransfected cells were then treated with 100 μg/ml 5-FU for 48 hours or not treated. The transfection efficiency was normalized by either cotransfection of an expression vector for chloramphenicol transferase (CAT) or renilla luciferase (both controlled by a basal promoter). The luciferase activity was measured using the “dual luciferase” assay (Promega company) in accordance with the manufacturer's instructions, and the CAT activity was determined by means of a commercially available CAT ELISA. Average values (with standard deviation) from different independent experiments are shown. B: “Dual luciferase” assay with Hep3B cells cotransfected with the described CD95L promoter construct and a renilla-luciferase expression vector (as a control for the transfection efficiency). The cells were collected at the indicated times. In addition, the protein content of the transfected cells was determined. The data are average values (with standard deviation) from three samples of a representative experiment. Four independent experiments were carried out.
Hep3B cells were transfected with the −36/+100 construct (CD95L prom wt) or the APX4 construct (mutated −36/+100 CD95L.luc; Cd95L prom mut). The transfection efficiency was monitored by cotransfection with renilla luciferase. Following transfection the cells were treated with 5-FU (100 μg/ml) for 48 hours. The luciferase activity was measured and the multiplication of induction was calculated.
One day before the transfection, the cells were plated out with a density of 0.6×10^6/9 cm Petri dishes. The medium was exchanged two hours before the transfection. The transfection was carried out by means of the method based on calcium phosphate precipitation. In summary, 5 to 40 μg DNA were diluted in 500 μl of a calcium chloride solution. The DNA/calcium chloride mixture was added drop-wise to 500 μl HBS. Precipitation was carried out at room temperature for 20 min., and then the precipitation mixture was added to the culture medium. The precipitate was allowed to stay on the cells for 12 to 24 hours. Thereafter, the cells were shock-treated using 16% glycerin in full medium for 3 min. Following three wash steps using PBS, the cells were cultured in medium supplemented with 20% FCS for at least six hours. Finally, the cells were distributed over 6-well plates, and the chemotherapeutic treatment was started for different periods.
After three wash steps in PBS, the cells were lyzed in 200 μl passive lysis buffer (Promega). Following 20 minutes of incubation at room temperature, the cells were scratched off the plates. The lyzates were subjected to two freeze/thaw cycles and then cell debris was removed by centrifugation.

Regarding `O=c1[nH]cc(F)c(=O)[nH]1` [5-FU, 5-fluorouracil], in the experiment on HepG2 cells, the apoptosis rate worked out at 43%. Moreover, the “upward regulation of CD95L-mRNA” value with CD95L-mRNA [1] and in the experiment on CD95L-mRNA [2] was “regulate upward” each time. The “killing of CD95-bearing SKW6.4 cells by treated Hep3B cells” value with SKW6.4 cells is “significant killing”. The “inducibility of CD95L promoter luciferase constructs (-1204/+100 to -36/+100)” value in the experiment with CD95L promoter (Hep3B cells transiently transfected) was “inducible”. Moreover, the “inducibility of the AP-1-mutated -36/+100 reporter construct” value with CD95L promoter (Hep3B cells, 100 μg/ml 5-FU, 48-hour treatment) is given as “almost fully eliminated”. Further, the “effect of the combination on activation of the CD95L promoter” value in the experiment on CD95L promoter (Hep3B cells) is “synergistic effect”. Further, the “time of maximum activation of the -36/+100 construct” value in the experiment with CD95L promoter (Hep3B cells, -36/+100 luciferase construct) is 64 h. The “response of the -36/+19 construct (lacks AP-1 site)” value with CD95L promoter (Hep3B cells, incubation up to 64 hours) is reported as “did not respond”. Further, the “AP-1 (c-Jun) nuclear staining” value was “widely accumulated AP-1 within the nucleus” in the experiment on c-Jun [3] and “intensive nuclear reactivity” with c-Jun [4].

With bleomycin, the “upward regulation of CD95L-mRNA” value in the experiment on CD95L-mRNA [1] and with CD95L-mRNA [2] was “regulated upward” in each case.

`COc1cc([C@@H]2c3cc4c(cc3[C@@H](O[C@@H]3O[C@@H]5CO[C@@H](C)O[C@H]5[C@H](O)[C@H]3O)[C@H]3COC(=O)[C@H]23)OCO4)cc(OC)c1O` [etoposide]: the “upward regulation of CD95L-mRNA” value with CD95L-mRNA [1] and in the experiment with CD95L-mRNA [2] was “regulate upward” in each case. Further, the “effect of the combination on activation of the CD95L promoter” value in the experiment with CD95L promoter (Hep3B cells) is “synergistic effect”.

On to `Cc1c2oc3c(C)ccc(C(=O)N[C@@H]4C(=O)N[C@H](C(C)C)C(=O)N5CCC[C@H]5C(=O)N(C)CC(=O)N(C)[C@@H](C(C)C)C(=O)O[C@@H]4C)c3nc-2c(C(=O)N[C@@H]2C(=O)N[C@H](C(C)C)C(=O)N3CCC[C@H]3C(=O)N(C)CC(=O)N(C)[C@@H](C(C)C)C(=O)O[C@@H]2C)c(N)c1=O` [actinomycin C1] (I: T[dV]P[Sar][NMeV] / II: T[dV]P[Sar][NMeV]; ester I:1-I:C, II:1-II:C; linker I:N-II:N via Actinocin(9to1)), for which, in the experiment on CD95L-mRNA [1], the “effect on the upward regulation of CD95L following treatment with chemotherapeutic agents” value is given as “reduced efficiently” and the “effect on transcription or translation of the housekeeping gene β-actin” value is recorded as “no effect”.

In the case of `C[C@@H]1C[C@@H]([C@H](O)CC2CC(=O)NC(=O)C2)C(=O)[C@@H](C)C1` [cycloheximide], in the experiment with CD95L-mRNA [1], the “effect on the upward regulation of CD95L following treatment with chemotherapeutic agents” value is “reduced efficiently” and the “effect on transcription or translation of the housekeeping gene β-actin” value is “no effect”.

The values above are taken from patent US20030157502A1, “Chemotherapeutant screening method” (priority 1999, published 2003).
